Patent US20060019890A1, “Method for treating cardiac remodeling following myocardial injury” (priority 2004, published 2006)

Assays:
[1] = test system: human cardiac fibroblasts; test: BrdU incorporation, cardiac fibroblast proliferation; format: cell-based; details: 5 ng/ml TGFβ
Description: Cells were placed in 96-well plates and cultured for 24 h before changing to serum-free medium. […] Subsequently, 10 μmol/L of 5-bromo-2′-deoxyuridine (BrdU) was added to the cells, and they were cultured for an additional 24 h. BrdU incorporation was detected using the Cell Proliferation ELISA kit (Roche, Indianapolis, Ind.). Data was analyzed by ANOVA using the Newman-Keuls test to assess significance.

[2] = test system: human cardiac fibroblasts; test: Real-time RT-PCR gene expression in cardiac fibroblasts; format: cell-based; details: normalized to 18s RNA
Description: Real-time RT-PCR^18 was performed in a two-step manner. cDNA synthesis and real-time detection were carried out in a PTC-100™ Thermal Cycler (MJ Research Inc, Waltham, Mass.) and an ABI Prism™ 7700 Sequence Detection System (Applied Biosystems, Foster City, Calif.), respectively. Random hexamers (Qiagen, Valencia, Calif.) were used to generate cDNA from 200 ng RNA as described in Applied Biosystems User Bulletin #2. TaqMan™ PCR Core Reagent Kit or TaqMan™ Universal PCR Master Mix (Applied Biosystems) were used in subsequent PCR reactions according to the manufacturer's protocols. Relative quantitation of gene expression was performed using the relative standard curve method. All real-time RT-PCR reactions were performed in triplicate.
Sequence specific primers and probes were designed using Primer Express Version 2 software (Applied Biosystems). Sequences of primers and probes can be found in Table 1 below. Expression levels were normalized to 18S rRNA. The selection of 18S rRNA as an endogenous control was based on an evaluation of the ΔCT levels (Applied Biosystems document # 4308134C) of 6 “housekeeping” genes: Cyclophilin A, 18S, GAPDH, β-actin, β-Glucuronidase, and Hypoxanthine Guanine Phosphoribosyl Transferase.

[3] = test system: human cardiac fibroblasts; test: Western blot analysis of Collagen 1 and Fibronectin protein; format: cell-based; details: 48 h
Description: Lysis was induced with 0.2 ml of buffer containing 20 mM Tris-HCL, pH 7.9, 137 mM NaCl, 1% Triton X-100, 5 mM EDTA, 10 mM NaF, 1 mM β-glycerophosphate, and protease inhibitor cocktail. The protein concentration of each lysate was measured using coomassie protein reagent from PIERCE. Twenty μg of protein from each sample was loaded and electrophoresed on 4-12% gradient polyacrylamide gels and electrophoretically transferred to nitrocellulose membranes (Invitrogen, San Diego, Calif.). The membranes were incubated with rabbit anti-human Collagen 1 antibody (Cortex Biochem, San Leandro, Calif.), HRP-conjugated anti-human Fibronectin antibody, or goat anti-Actin antibody (Santa Cruz Biotehnology, Santa Cruz, Calif.) in TBST buffer containing 20 mM Tris-HCl, pH 7.5, 150 mM NaCl, 0.1% Tween-20, and 5% nonfat dried milk at 4° C. for ˜16 h. For ERK phosphorylation, cells were treated with 0.5 μmol/L BNP in the presence of 1 μmol/L KT5823 or 10 μmol/L U0126 for 15 min; the membranes were incubated with rabbit anti-human phospho-ERK ½ antibody or rabbit anti-human ERK ½ antibody (Cell Signaling, Beverly, Mass.). For secondary antibody detection, membranes were incubated with HRP-conjugated anti-rabbit antibody or anti-goat antibody at room temperature for 1 h and washed 3 times with TBST buffer. The blots were soaked in ECL Plus reagent for 5 min and exposed to KODAK x-ray film. Signals were identified and quantified using a Typhoon Scanner and Densitometer from Amersham Biosciences (Piscataway, N.J.). Data was analyzed by ANOVA using the Newman-Keuls test to assess significance. Results cGMP Production in Cardiac Fibroblasts

[4] = test system: human cardiac fibroblasts; test: cDNA microarray gene expression profiling of TGFβ- and/or BNP-treated cardiac fibroblasts; details: for number of gene expression changes induced: 1.8-fold threshold
Description: Two lots of primary human cardiac fibroblasts, derived from a person (lot 1) and a person (lot 2), were provided by Cambrex Bio Science (Walkersville, Md.). Cells stained positive for α-smooth muscle actin and vimenfin antibodies corroborating their identity as cardiac fibroblasts and myofibroblasts. Both lots were used for the real-time RT-PCR studies; lot 1 was used for the microarray analysis. Cells at passage 3-5 were cultured in FGM containing 15% FBS. At confluence, cells were split and cultured in 6-well plates for 24 h.
Gene expression profiles were determined from cDNA microarrays containing 8,600 elements derived from clones isolated from normalized cDNA libraries or purchased from ResGen (Invitrogen Life Technologies, Carlsbad, Calif.). DNA for spotting was generated by PCR amplification using 5′amino-modified primers (BD Biosciences Clontech, Palo Alto, Calif.) derived from flanking vector sequences. Amplified DNA was purified in a 96-well format using Qiagen's Qiaquick columns (Valencia, Calif.) according to the manufacturer's recommendations. Samples were eluted in Milli-Q purified water, dried to completion and resuspended in 7 μl of 3×SSC. A fluorescent assay using PicoGreen (Molecular Probes, Eugene, Oreg.) was randomly performed on 12% of the PCR products to determine the average yield after purification; yields were ˜1.5 μg of DNA which corresponds to a concentration of 214 μg/ml. Purified DNA was arrayed from 384-well microtiter plates onto lysine-coated glass slides using an OmniGrid II microarrayer (GeneMachines, San Carlos, Calif.). After printing, DNA was cross-linked to the glass with 65 mjoules UV irradiation and reactive amines were blocked by treatment with succinic anhydride.
Total RNA was extracted from cells using Qiagen's RNeasy kit; two wells from a 6 well plate were pooled to yield a total of 4×10^5 cells per treatment. RNA was amplified using a modified Eberwine protocol^5 that incorporated a polyA tail into the amplified RNA. Fluorescently-labeled cDNA probes were generated by reverse transcription of 4 μg of RNA with SuperScript II (Invitrogen Life Technologies, Carlsbad, Calif.) using anchored dT primers in the presence of Cy3 or Cy5 dUTP (Amersham, Piscataway, N.J.). Labeled cDNA probe pairs were precipitated with ethanol and purified using Qiaquick columns. Twenty μg each of poly(A) DNA, yeast tRNA, and human Cot1 DNA (Applied Genetics, Melbourne, Fla.) was added to the eluant. The samples were dried to completion and resuspended in 12.5 μl 3×SSC, 0.1% SDS. Probes were heated to 95° C. for 5 minutes, applied to the arrays under a 22 mm^2 cover slip and allowed to hybridize for at least 16 h at 65° C. The arrays were washed at 55° C. for 10 minutes in 2×SSC, 0.1% SDS, followed by two washes at room temperature in 1×SSC (10 min) and 0.2×SSC (15 min). Hybridization of each fluorophore was quantified using an Axon GenePix 4000A scanner.
Differential expression values were expressed as the ratio of the median of background-subtracted fluorescent intensity of the experimental RNA to the median of background-subtracted fluorescent intensity of the control RNA. For ratios greater than or equal to 1.0, the ratio was expressed as a positive value. For ratios less than 1.0, the ratio was expressed as the negative reciprocal (i.e., a ratio of 0.5=−2.0). Median ratios were normalized to 1.0 using two pools of 3000 randomly chosen cDNAs in each pool. Six replicates of each of the two pools were printed in 4 evenly distributed blocks of the array. Expression data was rejected if neither channel produced a signal of at least 2.0-fold over background. Differential expression ratios were determined as the mean of the two values from dye-swapped duplicates.

Substance: TGFβ
- increase in cardiac fibroblast proliferation (BrdU incorporation) [1]: ~50%
- ACTA2 expression level relative to control ([2]; 6 h, lot 1): 1.1 ± 0.11
- CTGF expression level relative to control ([2]; 6 h, lot 1): 3.5 ± 0.08
- Collagen 1 expression level relative to control ([2]; 6 h, lot 1): 1.9 ± 0.04
- Fibronectin expression level relative to control ([2]; 6 h, lot 1): 1.1 ± 0.17
- IL6 expression level relative to control ([2]; 6 h, lot 1): 3.6 ± 0.27
- IL11 expression level relative to control ([2]; 6 h, lot 1): 13.3 ± 0.89
- PTGS2/COX-2 expression level relative to control ([2]; 6 h, lot 1): 9.0 ± 1.49
- SERPINE1/PAI-1 expression level relative to control ([2]; 6 h, lot 1): 7.3 ± 0.44
- TIMP3 expression level relative to control ([2]; 6 h, lot 1): 1.4 ± 0.03
- ACTA2 expression level relative to control ([2]; 24 h, lot 1): 2.2 ± 0.00
- CTGF expression level relative to control ([2]; 24 h, lot 1): 3.3 ± 0.25
- Collagen 1 expression level relative to control ([2]; 24 h, lot 1): 3.3 ± 0.05
- Fibronectin expression level relative to control ([2]; 24 h, lot 1): 1.0 ± 0.05
- IL6 expression level relative to control ([2]; 24 h, lot 1): 1.7 ± 0.14
- IL11 expression level relative to control ([2]; 24 h, lot 1): 32.3 ± 0.82
- PTGS2/COX-2 expression level relative to control ([2]; 24 h, lot 1): 3.5 ± 0.67
- SERPINE1/PAI-1 expression level relative to control ([2]; 24 h, lot 1): 8.5 ± 0.08
- TIMP3 expression level relative to control ([2]; 24 h, lot 1): 2.6 ± 0.26
- ACTA2 expression level relative to control ([2]; 24 h, lot 2): 2.3 ± 0.12
- CTGF expression level relative to control ([2]; 24 h, lot 2): 2.2 ± 0.16
- Collagen 1 expression level relative to control ([2]; 24 h, lot 2): 1.5 ± 0.09
- Fibronectin expression level relative to control ([2]; 24 h, lot 2): 1.0 ± 0.02
- IL6 expression level relative to control ([2]; 24 h, lot 2): 1.4 ± 0.05
- IL11 expression level relative to control ([2]; 24 h, lot 2): 7.7 ± 0.81
- PTGS2/COX-2 expression level relative to control ([2]; 24 h, lot 2): 4.9 ± 0.36
- SERPINE1/PAI-1 expression level relative to control ([2]; 24 h, lot 2): 2.4 ± 0.06
- TIMP3 expression level relative to control ([2]; 24 h, lot 2): 1.5 ± 0.12
- ACTA2 expression level relative to control ([2]; 48 h, lot 1): 1.0 ± 0.19
- CTGF expression level relative to control ([2]; 48 h, lot 1): 3.1 ± 0.01
- Collagen 1 expression level relative to control ([2]; 48 h, lot 1): 3.8 ± 0.38
- Fibronectin expression level relative to control ([2]; 48 h, lot 1): 2.2 ± 0.38
- IL6 expression level relative to control ([2]; 48 h, lot 1): 1.6 ± 0.12
- IL11 expression level relative to control ([2]; 48 h, lot 1): 17.6 ± 0.22
- PTGS2/COX-2 expression level relative to control ([2]; 48 h, lot 1): 2.2 ± 0.12
- SERPINE1/PAI-1 expression level relative to control ([2]; 48 h, lot 1): 8.4 ± 1.33
- TIMP3 expression level relative to control ([2]; 48 h, lot 1): 3.0 ± 0.34
- ACTA2 expression level relative to control ([2]; 48 h, lot 2): 2.5 ± 0.13
- CTGF expression level relative to control ([2]; 48 h, lot 2): 2.1 ± 0.14
- Collagen 1 expression level relative to control ([2]; 48 h, lot 2): 2.5 ± 0.32
- Fibronectin expression level relative to control ([2]; 48 h, lot 2): 2.0 ± 0.39
- IL6 expression level relative to control ([2]; 48 h, lot 2): 1.4 ± 0.17
- IL11 expression level relative to control ([2]; 48 h, lot 2): 5.9 ± 0.18
- PTGS2/COX-2 expression level relative to control ([2]; 48 h, lot 2): 5.4 ± 0.92
- SERPINE1/PAI-1 expression level relative to control ([2]; 48 h, lot 2): 2.6 ± 0.03
- TIMP3 expression level relative to control ([2]; 48 h, lot 2): 1.7 ± 0.13
- induction of Collagen 1 protein synthesis [3]: ~3 fold
- number of gene expression changes induced ([4]; 24 h): 394
- TNFAIP6 expression elevation ([4]; 24 h, microarray): ~3 fold
- TNFSF4 expression elevation ([4]; 24 h, microarray): ~3 fold
- number of gene expression changes induced ([4]; 48 h): 501
